Laboratory results reported in patent publication US20020006406A1, “METHOD FOR THE TREATMENT OF STAPHYLOCOCCAL DISEASE” (priority 1997, published 2002).
Read-outs that look alike come from different tables or passages of the source. Marks after values point to notes of the source that are not given here.

Key:
[1] = tested on: methicillin-resistant VISA strain of S. aureus; experiment: Experimental endocarditis in rabbits, methicillin-resistant VISA strain; type: in vivo
Method: Aortic valve endocarditis was established in New Zealand white rabbits weighing approximately 3 kg. Rabbits were anesthetized and the right carotid artery surgically exposed and cannulated with a polyethylene catheter which was advanced into the left ventricle of the heart. After at least 24 h, the rabbits were infected intravenously with 10^6-10^7 cells of a methicillin-resistant S. aureus strain (MRSA 27619). Twenty-four hours later, the animals were randomly assigned to different treatment groups; untreated control (9 rabbits); positive control, vancomycin 30 mg/kg twice daily (15); lysostaphin 5 mg/kg three times daily (11); lysostaphin 5 mg/kg once daily (10); lysostaphin 5 mg/kg once daily+vancomycin 30 mg/kg twice daily (11). Any rabbits whose infection was not confirmed by pre-treatment blood culture were eliminated.
All treatments were intravenous and were carried out for three days. The state of health of the rabbits was assessed at intervals. The rabbits were sacrificed 18 h after the last treatment. Aortic vegetations were removed and weighed and processed to determine the number of viable bacteria, expressed as log,10CFU/gram. The limit of detection is 10^2 CFU/gram (log10CFU/gram=2.0). The mean titers of bacteria per gram were compared by one-way analysis of variance. The Student-Newman-Keuls test was used to adjust for multiple comparisons.
Strains that are both methicillin-resistant and resistant to vancomycin are a newly emerging problem. A variant strain of this type was selected after cycles of growth in glycopeptide-containing medium. The vancomycin MIC for the resulting strain was 8 μg/ml, as reported also for naturally occurring VISA strains isolated from patients in the U.S. and Japan. (Centers for Disease Control and Prevention, Morbidity and Mortality Weekly Report 1997; 46:813-815). Staphylococcal isolates are considered to be susceptible to vancomycin if the MIC is less than or equal to 4 μg/ml and to be completely resistant if the MIC is greater than or equal to 32 μg/ml (National Committee for Clinical Laboratory Standards, 1993. Approved Standard M2-A5. Performance standards for antimicrobial disk susceptibility tests—Fifth edition. National Committee for Clinical Laboratory Standards, Villanova, Pa.)

[2] = single parenteral dose, followed by gentamicin three days later; the patient died; cited from earlier work
[3] = tested on: Giorgio strain of S. aureus; conditions: mice, cited from earlier work
S. aureus Smith = experiment: Acute S. aureus infection model in mice (survival); type: in vivo
Method: The efficacy of lysostaphin was compared to that of vancomycin in an acute infection model in mice. S. aureus Smith was cultured overnight, with moderate agitation, in Veal Infusion broth (Difco) and diluted in broth containing 5% hog gastric mucin (Difco). Male Swiss-Webster mice (Taconic Farms, Germantown, N.Y.) weighing approximately 20 grams were infected intraperitoneally with 10^5-10^6 viable cells, approximately tenfold the inoculum that reproducibly killed all untreated animals within 48 h. There were six mice in each treatment group. Lysostaphin was administered intravenously (in 0.1 ml 5% dextrose for injection) or subcutaneously (in 0.2 ml), within 10 min of infection. Vancomycin was administered subcutaneously.

S. aureus [4] = experiment: MIC by broth macrodilution in glass tubes; type: cell-based
Method: In this experiment, MICs were determined by broth macrodilution in 1 ml final volumes in glass tubes. Otherwise, the methodology was as described above.

[5] = tested on: methicillin-resistant clinical isolates of S. aureus and 27619VR; experiment: Time-kill experiment, four S. aureus strains (FIG. 2); type: cell-based; conditions: 1 μg/ml; three methicillin-resistant clinical isolates and 27619VR; 2×10^6 to 9×10^7 CFU/ml
Method: In another experiment (FIG. 2), three different methicillin-resistant clinical isolates of S. aureus, and a fourth strain, 27619VR, a laboratory-derived ‘VISA’ strain (i.e., with intermediate resistance to vancomycin) derived from a methicillin-resistant clinical isolate, were inoculated into cation-adjusted Mueller-Hinton broth (Becton Dickinson) and grown at 37° C. overnight. They were then diluted into fresh broth and incubated at 37° C. with gentle shaking until they were estimated to have reached the logarithmic stage of growth. […] Lysostaphin was added to each culture at the concentration of 1 μg/ml. At intervals, samples were withdrawn, serially diluted in 0.9% NaCl, and plated by spreading on Mueller-Hinton agar (Becton Dickinson). The agar plates were incubated for 48 hours at 37° C. and the colonies were counted manually.

S. aureus [6] = experiment: MBC by standard broth microdilution (kills 99.9% of inoculum in 24 h); type: cell-based
Excerpt: Approved Standard M7-A3. Methods for dilution antimicrobial susceptibility tests for bacteria that grow aerobically—Third edition. National Committee for Clinical Laboratory Standards, Villanova, Pa.; National Committee for Clinical Laboratory Standards, 1992. Tentative Guideline M26-T. Methods for determining bactericidal activity of antimicrobial agents. National Committee for Clinical Laboratory Standards, Villanova, Pa.].

[7] = at least 50 mg/kg/treatment; cited from earlier work
[8] = lysostaphin intravenously vs vancomycin

Substance: lysostaphin: recombinant lysostaphin enzyme from fermentation of B. sphaericus; majority component lacks the two N-terminal amino acids of the published sequence
- CFU/g vegetation (expressed as log10 of the mean) ([1]; 5 mg/kg three times daily): 6.29 log10 CFU/g
- sterile/total vegetations ([1]; 5 mg/kg three times daily): 2/10
- CFU/g vegetation (expressed as log10 of the mean) ([1]; 15 mg/kg twice daily): 4.0** log10 CFU/g
- sterile/total vegetations ([1]; 15 mg/kg twice daily): 0/5
- outcome in one very ill human patient [2]: reduction in bacteremia
- numbers of bacteria in the kidneys ([3]; intravenously within 6 hours after infection, dosages of 1.5 mg/kg or higher): significant reductions
- numbers of bacteria in the kidneys ([3]; treatment withheld for 24 hours or longer, dosages of 125 or 250 mg/kg): only modest reductions
- % survival (S. aureus Smith; 0.08 mg/kg iv within 10 min of infection): 33%
- % survival (S. aureus Smith; 0.16 mg/kg iv within 10 min of infection): 100%
- % survival (S. aureus Smith; 0.31 mg/kg iv within 10 min of infection): 100%
- % survival (S. aureus Smith; 0.63 mg/kg iv within 10 min of infection): 100%
- % survival (S. aureus Smith; 1.25 mg/kg sc): 67%
- % survival (S. aureus Smith; 2.5 mg/kg sc): 100%
- % survival (S. aureus Smith; 5 mg/kg sc): 100%
- % survival (S. aureus Smith; 10 mg/kg sc): 100%
- % survival (S. aureus Smith; 20 mg/kg sc): 100%
- % survival (S. aureus Smith; Table 4 experiment, dose 0.04 mg/kg): 0%
- % survival (S. aureus Smith; Table 4 experiment, dose 0.08 mg/kg): 17%
- % survival (S. aureus Smith; Table 4 experiment, dose 0.16 mg/kg): 83%
- effectiveness relative to vancomycin, on a molar basis (S. aureus Smith; [8]): about 200 times
- effectiveness relative to vancomycin, on a weight basis (S. aureus Smith; [8]): 16 times
- MIC (S. aureus [4]; strain AG402 (clinical isolate)): .008 mg/L
- MIC (S. aureus [4]; strain AG404 (clinical isolate, methicillin-resistant)): .008 mg/L
- MIC (S. aureus [4]; strain AG414): .004 mg/L
- MIC (S. aureus [4]; strain AG417): .004 mg/L
- killing of strains in time-kill experiment [5]: rapidly killed
- minimal bactericidal concentrations (MBC) (S. aureus [6]; clinical isolates of S. aureus (summary of Table 1a)): ≤ 1.0 mg/L
- MBC (S. aureus [6]; strain 402 (clinical isolate)): 0.5 mg/L
- MBC (S. aureus [6]; strain 404 (clinical isolate, methicillin-resistant)): 0.5 mg/L
- MBC (S. aureus [6]; strain 412): 0.25 mg/L
- MBC (S. aureus [6]; strain 414): 0.25 mg/L
- MBC (S. aureus [6]; strain 450M (clinical isolate, methicillin-resistant)): 0.5 mg/L
- MBC (S. aureus [6]; strain 1573 (clinical isolate, methicillin-resistant)): 1 mg/L
- MBC (S. aureus [6]; strain 27222 (clinical isolate, methicillin-resistant)): 0.25 mg/L
- MBC (S. aureus [6]; strain 27286 (clinical isolate, methicillin-resistant)): 0.5 mg/L
- MBC (S. aureus [6]; strain 27287 (clinical isolate, methicillin-resistant)): 0.25 mg/L
- MBC (S. aureus [6]; strain 27295 (clinical isolate, methicillin-resistant)): 0.25 mg/L
- MBC (S. aureus [6]; strain 27619 (clinical isolate, methicillin-resistant)): 0.5 mg/L
- MBC (S. aureus [6]; strain 27619VR (laboratory-derived, intermediate susceptibility to vancomycin)): 0.5 mg/L
- MBC (S. aureus [6]; strain 27621 (clinical isolate, methicillin-resistant)): 0.25 mg/L
- MBC (S. aureus [6]; strain 27622 (clinical isolate, methicillin-resistant)): 0.25 mg/L
- MBC (S. aureus [6]; strain 27698 (clinical isolate, methicillin-resistant)): 0.5 mg/L
- MBC (S. aureus [6]; strain 29293 (clinical isolate, methicillin-resistant)): 0.25 mg/L
- MBC (S. aureus [6]; strain COL (clinical isolate, methicillin-resistant)): 0.25 mg/L
- MBC (S. aureus [6]; strain HP5827 (clinical isolate, methicillin-resistant, VISA)): 0.5 mg/L
- MBC (S. aureus [6]; strain HP5836 (clinical isolate, methicillin-resistant, VISA)): 1 mg/L
- effectiveness (health of the dogs, reduction of bacteria in heart valves and kidneys) [7]: only moderately effective
